In PubChem BioAssay (NCI):
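Values below derive from 48-hour exposures of cells grown in 96-well plates, with endpoints linearly interpolated between the two concentrations bracketing the appropriate inhibition level. GI50 marks 50% less growth. Definition used: TGI = concentration required for complete inhibition of growth.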

Experiments:
Assay in all cases: inhibition of tumour cell growth, NCI panel, 48 h
[1] = test system: U251 CNS
[2] = test system: NCI/ADR-RES ovarian
[3] = test system: NCI-H23 lung
[4] = test system: MCF7 breast
[5] = test system: MALME-3M melanoma
[6] = test system: K-562 leukemia
[7] = test system: NCI-H460 lung
[8] = test system: SW-620 colon
[9] = test system: CCRF-CEM leukemia
[10] = test system: DU-145 prostate
[11] = test system: SF-295 CNS
[12] = test system: SK-OV-3 ovarian
[13] = test system: LOX IMVI melanoma
[14] = test system: T-47D breast
[15] = test system: UACC-62 melanoma
[16] = test system: PC-3 prostate
[17] = test system: COLO 205 colon
[18] = test system: CAKI-1 renal
[19] = test system: HCT-116 colon
[20] = test system: HOP-92 NSCLC
[21] = test system: HCC-2998 colon
[22] = test system: EKVX NSCLC
[23] = test system: IGROV1 ovarian
[24] = test system: NCI-H226 lung
[25] = test system: MOLT-4 leukemia
[26] = test system: A549 NSCLC
[27] = test system: TK-10 renal
[28] = test system: OVCAR-4 ovarian
[29] = test system: SF-268 CNS
[30] = test system: OVCAR-3 ovarian
[31] = test system: MDA-MB-435
[32] = test system: A498 renal
[33] = test system: HOP-62 NSCLC
[34] = test system: SK-MEL-2 melanoma
[35] = test system: SF-539 CNS
[36] = test system: HS 578T breast
[37] = test system: OVCAR-5 ovarian
[38] = test system: MDA-MB-231 breast
[39] = test system: SNB-19 CNS
[40] = test system: OVCAR-8 ovarian
[41] = test system: HL-60(TB) leukemia
[42] = test system: HCT-15 colon
[43] = test system: KM12 colon
[44] = test system: RPMI-8226 leukemia
[45] = test system: M14 melanoma
[46] = test system: BT-549 breast
[47] = test system: RXF 393 renal
[48] = test system: 786-0 renal
[49] = test system: UO-31 renal
[50] = test system: UACC-257 melanoma
[51] = test system: SN12C renal
[52] = test system: SNB-75 CNS
[53] = test system: SK-MEL-28 melanoma
[54] = test system: SK-MEL-5 melanoma
[55] = test system: ACHN renal
[56] = test system: NCI-H522 lung
[57] = test system: HT29 colon

COc1cccc2c1C(=O)c1c(O)c3c(c(O)c1C2=O)C[C@@](O)(C(=O)CO)C[C@@H]3OC1CC(OC(C)=O)C(OC(C)=O)C(C)O1 (some centres not stated)
GI50 [1]: 275 nM | TGI [1]: 7930 nM | GI50 [2]: 552 nM | GI50 [3]: 227 nM | TGI [3]: 1500 nM | GI50 [4]: < 28.4 nM | TGI [4]: 7640 nM | GI50 [5]: 502 nM | TGI [5]: 2190 nM | GI50 [6]: 868 nM | GI50 [7]: < 23.9 nM | TGI [7]: 1570 nM | GI50 [8]: 277 nM | TGI [8]: 3450 nM | GI50 [9]: 43.5 nM | TGI [9]: 764 nM | GI50 [10]: 120 nM | TGI [10]: 719 nM | GI50 [11]: 234 nM | TGI [11]: 1250 nM | GI50 [12]: 830 nM | TGI [12]: 6500 nM | GI50 [13]: 284 nM | TGI [13]: > 20000 nM | GI50 [14]: 237 nM | TGI [14]: 1990 nM | GI50 [15]: 230 nM | TGI [15]: 1890 nM | GI50 [16]: 1480 nM | TGI [16]: > 23300 nM | GI50 [17]: 801 nM | TGI [17]: 4450 nM | GI50 [18]: 180 nM | TGI [18]: 1440 nM | GI50 [19]: 279 nM | TGI [19]: 1890 nM | GI50 [20]: 239 nM | GI50 [21]: 1280 nM | TGI [21]: 3190 nM | GI50 [22]: 1920 nM | TGI [22]: 9500 nM | TGI [23]: 3910 nM | GI50 [24]: 193 nM | TGI [24]: 1160 nM | GI50 [25]: < 28.2 nM | GI50 [26]: 410 nM | TGI [26]: 2770 nM | GI50 [27]: 985 nM | TGI [27]: 6430 nM | GI50 [28]: 2240 nM | TGI [28]: > 39600 nM | GI50 [29]: 287 nM | TGI [29]: 4460 nM | GI50 [30]: 965 nM | TGI [30]: 4570 nM | GI50 [31]: 1270 nM | TGI [31]: 4630 nM | GI50 [32]: 127 nM | TGI [32]: 1620 nM | GI50 [33]: 314 nM | TGI [33]: 2270 nM | GI50 [34]: 1870 nM | TGI [34]: 4950 nM | GI50 [35]: 267 nM | TGI [35]: 1900 nM | TGI [36]: 4140 nM | GI50 [37]: 1160 nM | TGI [37]: 5000 nM | GI50 [38]: 2890 nM | TGI [38]: 15600 nM | GI50 [39]: 496 nM | TGI [39]: > 100000 nM | GI50 [40]: 479 nM | TGI [40]: > 58100 nM | GI50 [41]: 235 nM | GI50 [42]: 491 nM | TGI [42]: 6750 nM | GI50 [43]: 549 nM | TGI [43]: 3740 nM | GI50 [44]: 226 nM | TGI [44]: 2110 nM | GI50 [45]: 529 nM | TGI [45]: 2260 nM | GI50 [46]: 386 nM | TGI [46]: 4290 nM | GI50 [47]: 1410 nM | TGI [47]: 3720 nM | GI50 [48]: 272 nM | TGI [48]: 1410 nM | GI50 [49]: 258 nM | TGI [49]: 1990 nM | GI50 [50]: 1370 nM | TGI [50]: 4250 nM | GI50 [51]: 255 nM | TGI [51]: 5870 nM | GI50 [52]: 687 nM | TGI [52]: 8530 nM | GI50 [53]: 1390 nM | TGI [53]: 3200 nM | GI50 [54]: 249 nM | TGI [54]: 1670 nM | GI50 [55]: 152 nM | TGI [55]: 1440 nM | GI50 [56]: 578 nM | TGI [56]: 3360 nM | GI50 [57]: 1020 nM | TGI [57]: > 32100 nM
